Reference: PubChem BioAssay (NCI)
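The concentration for 50% growth inhibition is given as GI50. Definition used: TGI = concentration required for complete inhibition of growth.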

Tests used:
Test in all cases: inhibition of tumour cell growth, NCI panel, 384-well format
[1] = test system: SF-295 CNS
[2] = test system: UACC-62 melanoma
[3] = test system: K-562 leukemia
[4] = test system: NCI-H522 lung
[5] = test system: OVCAR-3 ovarian
[6] = test system: PC-3 prostate
[7] = test system: NCI-H322M lung
[8] = test system: NCI-H226 lung
[9] = test system: MOLT-4 leukemia
[10] = test system: OVCAR-5 ovarian
[11] = test system: KM12 colon
[12] = test system: SK-MEL-28 melanoma
[13] = test system: A498 renal
[14] = test system: 786-0 renal
[15] = test system: SR leukemia
[16] = test system: UACC-257 melanoma
[17] = test system: MDA-MB-468 breast
[18] = test system: MALME-3M melanoma
[19] = test system: SK-OV-3 ovarian
[20] = test system: LOX IMVI melanoma
[21] = test system: MDA-MB-231 breast
[22] = test system: SN12C renal
[23] = test system: SF-539 CNS
[24] = test system: OVCAR-8 ovarian
[25] = test system: HL-60(TB) leukemia
[26] = test system: MDA-MB-435 melanoma
[27] = test system: IGROV1 ovarian
[28] = test system: SK-MEL-5 melanoma
[29] = test system: CCRF-CEM leukemia
[30] = test system: NCI/ADR-RES ovarian
[31] = test system: U251 glioblastoma
[32] = test system: T-47D breast
[33] = test system: COLO 205 colon
[34] = test system: TK-10 renal
[35] = test system: MCF7 breast
[36] = test system: ACHN renal
[37] = test system: UO-31 renal
[38] = test system: BT-549 breast
[39] = test system: NCI-H23 lung
[40] = test system: SNB-19 CNS
[41] = test system: HOP-92 NSCLC
[42] = test system: M14 melanoma
[43] = test system: HT29 colon
[44] = test system: CAKI-1 renal
[45] = test system: SW-620 colon
[46] = test system: SF-268 CNS
[47] = test system: HCT-116 colon
[48] = test system: DU-145 prostate
[49] = test system: OVCAR-4 ovarian
[50] = test system: NCI-H460 NSCLC
[51] = test system: HCC-2998 colon
[52] = test system: RXF 393 renal
[53] = test system: A549 NSCLC
[54] = test system: HOP-62 NSCLC
[55] = test system: SK-MEL-2 melanoma
[56] = test system: HCT-15 colon
[57] = test system: RPMI-8226 leukemia

`CO[C@@H]1/C=C\C=C(/C)C(=O)NC2=CC(=O)C(NCCN(C)C)=C(C[C@@H](C)C[C@@H](OC)[C@@H](O)[C@H](C)/C=C(\C)[C@H]1OC(N)=O)C2=O` was tested, and the GI50 [1] was 27.7 nM, the TGI [1] was 96.9 nM and the GI50 [2] was < 10 nM. For the same compound, the TGI [2] was 48.4 nM, the GI50 [3] was 24.1 nM and the TGI [3] was 85.3 nM. It also gave a GI50 [4] of 13 nM, a TGI [4] of 30.5 nM and a GI50 [5] of 23.3 nM. The TGI [5] was 76.3 nM, the GI50 [6] was 19.9 nM and the TGI [6] was 53.1 nM. The GI50 [7] was < 10 nM, the TGI [7] was 3.4 µM and the GI50 [8] was 22.7 nM. The TGI [8] was 84.5 nM, the GI50 [9] was 16.9 nM and the TGI [9] was 33.7 nM. It also gave a GI50 [10] of 36 nM, a TGI [10] of 173 nM and a GI50 [11] of 15.2 nM. The TGI [11] was 86.4 nM, the GI50 [12] was 12.5 nM and the TGI [12] was 9.83 µM. For the same compound, the GI50 [13] was 50.8 nM, the TGI [13] was 12.7 µM and the GI50 [14] was 34.5 nM. For the same compound, the TGI [14] was 174 nM, the GI50 [15] was 12.7 nM and the TGI [15] was 27 nM. It also gave a GI50 [16] of 19 nM, a TGI [16] of 99 nM and a GI50 [17] of 23.8 nM. The TGI [17] was 54.3 nM, the GI50 [18] was < 10 nM and the TGI [18] was < 10 nM. The GI50 [19] was 12.5 nM, the TGI [19] was 90.6 nM and the GI50 [20] was 18.6 nM. The TGI [20] was 33.4 nM, the GI50 [21] was 23.7 nM and the TGI [21] was 68.1 nM. For the same compound, the GI50 [22] was 12 nM, the TGI [22] was 41.6 nM and the GI50 [23] was < 10 nM. For the same compound, the TGI [23] was 24.6 nM, the GI50 [24] was 21.6 nM and the TGI [24] was 48.3 nM. For the same compound, the GI50 [25] was 21 nM, the TGI [25] was 37.1 nM and the GI50 [26] was 29.4 nM. It also gave a TGI [26] of 1360 nM, a GI50 [27] of 22.6 nM and a TGI [27] of 63.1 nM. For the same compound, the GI50 [28] was < 10 nM, the TGI [28] was 366 nM and the GI50 [29] was 38.1 nM. The TGI [29] was 138 nM, the GI50 [30] was 2180 nM and the TGI [30] was 5.06 µM. The GI50 [31] was < 10 nM, the TGI [31] was 36.2 nM and the GI50 [32] was 102 nM. The TGI [32] was 790 nM, the GI50 [33] was < 10 nM and the TGI [33] was < 10 nM. It also gave a GI50 [34] of 77.4 nM, a TGI [34] of 846 nM and a GI50 [35] of 13.2 nM. For the same compound, the TGI [35] was 147 nM, the GI50 [36] was 128 nM and the TGI [36] was 2540 nM. The GI50 [37] was 368 nM, the TGI [37] was 11.7 µM and the GI50 [38] was < 10 nM. For the same compound, the TGI [38] was < 10 nM, the GI50 [39] was 24.1 nM and the TGI [39] was 67.8 nM. For the same compound, the GI50 [40] was 18.2 nM, the TGI [40] was 2180 nM and the GI50 [41] was 36.4 nM. For the same compound, the TGI [41] was 137 nM, the GI50 [42] was < 10 nM and the TGI [42] was 38 nM. The GI50 [43] was < 10 nM, the TGI [43] was 1080 nM and the GI50 [44] was 52.7 nM. The TGI [44] was 12.1 µM, the GI50 [45] was < 10 nM and the TGI [45] was 78.1 nM. It also gave a GI50 [46] of 24.8 nM, a TGI [46] of 2320 nM and a GI50 [47] of 26.9 nM. The TGI [47] was 1340 nM, the GI50 [48] was < 10 nM and the TGI [48] was 22.4 nM. The GI50 [49] was 17.4 nM, the TGI [49] was 359 nM and the GI50 [50] was < 10 nM. For the same compound, the TGI [50] was < 10 nM, the GI50 [51] was < 10 nM and the TGI [51] was 28.9 nM. For the same compound, the GI50 [52] was < 10 nM, the TGI [52] was 16.9 nM and the GI50 [53] was < 10 nM. It also gave a TGI [53] of 673 nM, a GI50 [54] of 16.8 nM and a TGI [54] of 66.1 nM. The GI50 [55] was < 10 nM, the TGI [55] was 27.5 nM and the GI50 [56] was 84.3 nM. It also gave a TGI [56] of 1310 nM, a GI50 [57] of 16.1 nM and a TGI [57] of 35.4 nM.
